In patent US6479435B1, “Diaryl ethers and processes for their preparation and herbicidal and desiccant compositions containing them” (ISK Americas Incorporated, priority 1997, dated 2002):

Key:
Type in all cases: in vivo
[1] = tested on: upland rice (Oryza sp., var.Tebonnet, RICE); test: Post-emerge greenhouse test, crop damage rating; conditions: 14 days after application
Method in brief: (§1)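 Scores use a 0 (no damage) to 100 (complete kill) scale, taken 14 days after a foliar spray. Acetone solutions with 0.25% v/v non-ionic surfactant were applied by track sprayer at 187 l/ha and 63-1000 g ai/ha to bottom-watered 2-3 leaf plants.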

[2] = tested on: field corn (Zea mays L., var. Dekalb 535, CORN); test: Post-emerge greenhouse test, crop damage rating; conditions: 14 days after application
Method in brief: as §1

[3] = tested on: common ragweed (Ambrosia artemisiifolia L., AMBEL); test: Post-emerge greenhouse herbicide test, phytotoxicity rating; conditions: 14 days after application
Method in brief: as §1

[4] = tested on: upland rice (Oryza sp., var.Tebonnet, RICE); test: Pre-emerge greenhouse test, crop damage rating; conditions: 14 days after application, rating scale 0-100
Method in brief: (§2)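 Visual 0–100 injury rating (100 = all plants dead) taken 14 days after treatment. Rates of 125–1000 g ai/ha in acetone, 187 l/ha, were sprayed onto soil one day post-sowing; pots were surface-watered to incorporate, then bottom-watered.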

[5] = tested on: field corn (Zea mays L., var. Dekalb 535, CORN); test: Pre-emerge greenhouse test, crop damage rating; conditions: 14 days after application, rating scale 0-100
Method in brief: as §2

[6] = tested on: soybean (Glycine max L., var. Pella 86, SOY); test: Pre-emerge greenhouse test, crop damage rating; conditions: 14 days after application, rating scale 0-100
Method in brief: as §2

[7] = tested on: large crabgrass (Digitaria sanguinalis, DIGSA); test: Pre-emerge greenhouse herbicide test, phytotoxicity rating; conditions: 14 days after application, rating scale 0-100
Method in brief: as §2

[8] = tested on: sicklepod (Cassia obtusifolia, CASOB); test: as above; conditions: 14 days after application, rating scale 0-100
Method in brief: as §2

[9] = tested on: redroot pigweed (Amaranthus retroflexus, AMARE); test: as above; conditions: 14 days after application, rating scale 0-100
Method in brief: as §2

[10] = tested on: barnyardgrass (Echinochloa crusgalli, ECHCG); test: as above; conditions: 14 days after application, rating scale 0-100
Method in brief: as §2

[11] = tested on: velvetleaf (Abutilon theophrasti, ABUTH); test: as above; conditions: 14 days after application, rating scale 0-100
Method in brief: as §2

[12] = tested on: Johnsongrass (Sorghum halepense, SORHA); test: as above; conditions: 14 days after application, rating scale 0-100
Method in brief: as §2

[13] = tested on: green foxtail (Setaria viridis, SETVI); test: as above; conditions: 14 days after application, rating scale 0-100
Method in brief: as §2

[14] = tested on: ivyleaf morningglory (Ipomoea hederacea, IPOHE); test: as above; conditions: 14 days after application, rating scale 0-100
Method in brief: as §2

[15] = tested on: common ragweed (Ambrosia artemisiifolia L., AMBEL); test: as above; conditions: 14 days after application, rating scale 0-100
Method in brief: as §2

[16] = tested on: lambsquarters (Chenopodium album, CHEAL); test: as above; conditions: 14 days after application, rating scale 0-100
Method in brief: as §2

[17] = tested on: soybean (Glycine max L., var. Pella 86, SOY); test: Post-emerge greenhouse test, crop damage rating; conditions: 14 days after application
Method in brief: as §1

[18] = tested on: large crabgrass (Digitaria sanguinalis, DIGSA); test: Post-emerge greenhouse herbicide test, phytotoxicity rating; conditions: 14 days after application
Method in brief: as §1

[19] = tested on: redroot pigweed (Amaranthus retroflexus, AMARE); test: as above; conditions: 14 days after application
Method in brief: as §1

[20] = tested on: barnyardgrass (Echinochloa crusgalli, ECHCG); test: as above; conditions: 14 days after application
Method in brief: as §1

[21] = tested on: velvetleaf (Abutilon theophrasti, ABUTH); test: as above; conditions: 14 days after application
Method in brief: as §1

[22] = tested on: Johnsongrass (Sorghum halepense, SORHA); test: as above; conditions: 14 days after application
Method in brief: as §1

[23] = tested on: green foxtail (Setaria viridis, SETVI); test: as above; conditions: 14 days after application
Method in brief: as §1

[24] = tested on: ivyleaf morningglory (Ipomoea hederacea, IPOHE); test: as above; conditions: 14 days after application
Method in brief: as §1

[25] = tested on: lambsquarters (Chenopodium album, CHEAL); test: as above; conditions: 14 days after application
Method in brief: as §1

Compound: N#Cc1cc([N+](=O)[O-])ccc1Oc1cc(-n2c(=O)n3n(c2=S)CCCC3)c(F)cc1Cl [Compound 8-12]
- RICE crop damage rating (0-100) ([1]; 63 g al/ha): 0
- RICE crop damage rating (0-100) ([1]; 500 g al/ha): 30
- CORN crop damage rating (0-100) ([2]; 63 g al/ha): 0
- CORN crop damage rating (0-100) ([2]; 500 g al/ha): 0
- AMBEL phytotoxicity rating (0-100) ([3]; 63 g al/ha): 50
- AMBEL phytotoxicity rating (0-100) ([3]; 500 g al/ha): 70
- crop damage rating RICE ([4]; 125 g ai/ha): 20
- crop damage rating RICE ([4]; 500 g ai/ha): 50
- crop damage rating CORN ([5]; 125 g ai/ha): 0
- crop damage rating CORN ([5]; 500 g ai/ha): 0
- crop damage rating SOY ([6]; 125 g ai/ha): 0
- crop damage rating SOY ([6]; 500 g ai/ha): 0
- phytotoxicity rating DIGSA ([7]; 125 g ai/ha): 0
- phytotoxicity rating DIGSA ([7]; 500 g ai/ha): 50
- phytotoxicity rating CASOB ([8]; 125 g ai/ha): 0
- phytotoxicity rating CASOB ([8]; 500 g ai/ha): 0
- phytotoxicity rating AMARE ([9]; 125 g ai/ha): 90
- phytotoxicity rating AMARE ([9]; 500 g ai/ha): 100
- phytotoxicity rating ECHCG ([10]; 125 g ai/ha): 0
- phytotoxicity rating ECHCG ([10]; 500 g ai/ha): 0
- phytotoxicity rating ABUTH ([11]; 125 g ai/ha): 95
- phytotoxicity rating ABUTH ([11]; 500 g ai/ha): 100
- phytotoxicity rating SORHA ([12]; 125 g ai/ha): 0
- phytotoxicity rating SORHA ([12]; 500 g ai/ha): 40
- phytotoxicity rating SETVI ([13]; 125 g ai/ha): 0
- phytotoxicity rating SETVI ([13]; 500 g ai/ha): 70
- phytotoxicity rating IPOHE ([14]; 125 g ai/ha): 0
- phytotoxicity rating IPOHE ([14]; 500 g ai/ha): 70
- phytotoxicity rating AMBEL ([15]; 125 g ai/ha): 90
- phytotoxicity rating AMBEL ([15]; 500 g ai/ha): 90
- phytotoxicity rating CHEAL ([16]; 125 g ai/ha): 100
- phytotoxicity rating CHEAL ([16]; 500 g ai/ha): 100
- SOY crop damage rating (0-100) ([17]; 63 g al/ha): 50
- SOY crop damage rating (0-100) ([17]; 500 g al/ha): 60
- DIGSA phytotoxicity rating (0-100) ([18]; 63 g al/ha): 0
- DIGSA phytotoxicity rating (0-100) ([18]; 500 g al/ha): 0
- AMARE phytotoxicity rating (0-100) ([19]; 63 g al/ha): 70
- AMARE phytotoxicity rating (0-100) ([19]; 500 g al/ha): 100
- ECHCG phytotoxicity rating (0-100) ([20]; 63 g al/ha): 0
- ECHCG phytotoxicity rating (0-100) ([20]; 500 g al/ha): 40
- ABUTH phytotoxicity rating (0-100) ([21]; 63 g al/ha): 100
- ABUTH phytotoxicity rating (0-100) ([21]; 500 g al/ha): 100
- SORHA phytotoxicity rating (0-100) ([22]; 63 g al/ha): 0
- SORHA phytotoxicity rating (0-100) ([22]; 500 g al/ha): 50
- SETVI phytotoxicity rating (0-100) ([23]; 63 g al/ha): 0
- SETVI phytotoxicity rating (0-100) ([23]; 500 g al/ha): 30
- IPOHE phytotoxicity rating (0-100) ([24]; 63 g al/ha): 80
- IPOHE phytotoxicity rating (0-100) ([24]; 500 g al/ha): 70
- CHEAL phytotoxicity rating (0-100) ([25]; 63 g al/ha): 80
- CHEAL phytotoxicity rating (0-100) ([25]; 500 g al/ha): 70
